Data from ChEMBL document CHEMBL1201862, “PubChem BioAssay data set” (2004).
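In this assay, cells in 96-well plates receive the compound at five concentrations for 48 hours. Endpoints are linearly interpolated between the surrounding concentrations. GI50 = concentration required for 50% inhibition of growth.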 The source made the active and inactive calls. No stated cut-off is given here; in the data, active = GI50 up to about 1.1 µM and inactive = higher.

Columns and labels:
Assay in all cases: NCI tumour cell line growth inhibition, 48 h
KM12 = test system: KM12
786-0 = test system: 786-0
HOP-62 = test system: HOP-62
SK-MEL-5 = test system: SK-MEL-5
K562 = test system: K562
TK-10 = test system: TK-10
NCI-H522 = test system: NCI-H522
UACC-257 = test system: UACC-257
HCT-15 = test system: HCT-15
ACHN = test system: ACHN
SW-620 = test system: SW-620
UACC-62 = test system: UACC-62
RPMI-8226 = test system: RPMI-8226
DMS-114 = test system: DMS-114
OVCAR-3 = test system: OVCAR-3
SNB-75 = test system: SNB-75
SK-OV-3 = test system: SK-OV-3
OVCAR-8 = test system: OVCAR-8
SK-MEL-2 = test system: SK-MEL-2
MDA-MB-231 = test system: MDA-MB-231

Row | SMILES | GI50 (KM12) | GI50 (786-0) | GI50 (HOP-62) | GI50 (SK-MEL-5) | GI50 (K562) | GI50 (TK-10) | GI50 (NCI-H522) | GI50 (UACC-257) | GI50 (HCT-15) | GI50 (ACHN) | GI50 (SW-620) | GI50 (UACC-62) | GI50 (RPMI-8226) | GI50 (DMS-114) | GI50 (OVCAR-3) | GI50 (SNB-75) | GI50 (SK-OV-3) | GI50 (OVCAR-8) | GI50 (SK-MEL-2) | GI50 (MDA-MB-231)
1 | [O-][N+]1=C(c2ccccc2)COc2ccccc21 | > 100 µM (inactive) | > 100 µM (inactive) | > 100 µM (inactive) | > 100 µM (inactive) | > 100 µM (inactive) | > 100 µM (inactive) | > 100 µM (inactive) | > 100 µM (inactive) | > 100 µM | > 100 µM (inactive) | > 100 µM (inactive) | > 100 µM (inactive) | 67.5 µM (inactive) | > 100 µM (inactive) | > 100 µM (inactive) | > 100 µM (inactive) | > 100 µM (inactive) | > 100 µM (inactive) | > 100 µM (inactive) | 
2 | COC(=O)/C([Se]c1c(C)cc(C)cc1C)=C(\[Se]c1c(C)cc(C)cc1C)C(=O)OC | > 100 µM (inactive) | > 100 µM (inactive) | > 100 µM (inactive) | > 100 µM (inactive) | > 100 µM (inactive) | > 100 µM (inactive) | > 100 µM (inactive) | > 100 µM (inactive) | > 100 µM | > 100 µM (inactive) | > 100 µM (inactive) | > 100 µM (inactive) | > 100 µM (inactive) | > 100 µM (inactive) | > 100 µM (inactive) | > 100 µM (inactive) | > 100 µM (inactive) | > 100 µM (inactive) | > 100 µM (inactive) | 
3 | C=CC[C@@]1(C#N)C[C@H](C[C@]2(C#N)C[C@H](CCl)OC(C)(C)O2)OC(C)(C)O1 | > 100 µM (inactive) | > 100 µM (inactive) | > 100 µM (inactive) | 63.5 µM (inactive) | 53 µM (inactive) | > 100 µM (inactive) | 46 µM (inactive) | 94.8 µM (inactive) | > 100 µM | > 100 µM (inactive) | > 100 µM (inactive) | > 100 µM (inactive) | 52.5 µM (inactive) | 41.2 µM (inactive) | > 100 µM (inactive) | 64.4 µM (inactive) | > 100 µM (inactive) | > 100 µM (inactive) | > 100 µM (inactive) | 
4 | CCN(CCCl)CCCCNc1c2ccccc2nc2ccc(OC)cc12 | 0.356 µM (active) | 0.157 µM (active) | 0.439 µM (active) | 0.373 µM (active) | 0.2 µM (active) | 0.92 µM (active) | 0.208 µM (active) | 2.67 µM (inactive) | 0.752 µM | 0.178 µM (active) | 0.0664 µM (active) | 0.171 µM (active) | 0.0535 µM (active) | 0.323 µM (active) | 1.15 µM (inactive) | 0.472 µM (active) | 1.24 µM (inactive) | 0.305 µM (active) | 0.662 µM (active) | 0.457 µM (active)
5 | O=C(O)[C@H](NS(=O)(=O)c1ccc([N+](=O)[O-])cc1)c1ccccc1 | > 100 µM (inactive) | > 100 µM (inactive) | > 100 µM (inactive) | > 100 µM (inactive) | > 100 µM (inactive) | > 100 µM (inactive) | > 100 µM (inactive) | > 100 µM (inactive) | > 100 µM | > 100 µM (inactive) | > 100 µM (inactive) | > 100 µM (inactive) | > 100 µM (inactive) | > 100 µM (inactive) | > 100 µM (inactive) | > 100 µM (inactive) | > 100 µM (inactive) | > 100 µM (inactive) | > 100 µM (inactive) | 
6 | COc1cccc2c1c1ccc3c(c1n2C)C(=O)C=CC3=O | 78 µM (inactive) | 17.3 µM (inactive) | > 100 µM (inactive) | 37.8 µM (inactive) | 3.61 µM (inactive) | 18.9 µM (inactive) | 3.89 µM (inactive) | 14.9 µM (inactive) | 17.7 µM | 15 µM (inactive) | 12.1 µM (inactive) | 17.1 µM (inactive) | 2.81 µM (inactive) | 20 µM (inactive) | 16.3 µM (inactive) | 0.695 µM (active) | > 100 µM (inactive) | 15.3 µM (inactive) | 16.9 µM (inactive) | 
7 | COc1cc(C(Cc2ccccc2)NC(C)=O)oc(=O)c1 (stereo unspecified) | > 100 µM (inactive) | > 100 µM (inactive) | > 100 µM (inactive) | > 100 µM (inactive) | > 100 µM (inactive) | 4.14 µM (inactive) | > 100 µM (inactive) | > 100 µM (inactive) | > 100 µM | > 100 µM (inactive) | > 100 µM (inactive) | > 100 µM (inactive) | > 100 µM (inactive) | > 100 µM (inactive) | > 100 µM (inactive) | 25 µM (inactive) | > 100 µM (inactive) | > 100 µM (inactive) | > 100 µM (inactive) | 
8 | CCOc1cc2ccc3c4cc(OC)c(OC)cc4cnc3c2cc1OCC | > 100 µM (inactive) | > 100 µM (inactive) | > 100 µM (inactive) | > 100 µM (inactive) | > 100 µM (inactive) | > 100 µM (inactive) | > 100 µM (inactive) | > 100 µM (inactive) | > 100 µM | > 100 µM (inactive) | > 100 µM (inactive) | > 100 µM (inactive) | > 100 µM (inactive) | > 100 µM (inactive) | > 100 µM (inactive) | > 100 µM (inactive) | > 100 µM (inactive) | > 100 µM (inactive) | > 100 µM (inactive) | 
9 | CNC1=C(C)C(=O)C(C)=C(C(C)(C)CC(=O)n2cc(F)c(=O)[nH]c2=O)C1=O | 14.5 µM (inactive) | 22.6 µM (inactive) | 3.97 µM (inactive) | 12.3 µM (inactive) | 32 µM (inactive) | > 59.3 µM (inactive) | 35 µM (inactive) | 68.2 µM (inactive) | 19.9 µM | 38.5 µM (inactive) | 39.9 µM (inactive) | 45.4 µM (inactive) | 6.81 µM (inactive) | 74.6 µM (inactive) | 38.5 µM (inactive) | 69.3 µM (inactive) | > 100 µM (inactive) | 31.6 µM (inactive) | > 63.5 µM (inactive) | 
10 | COC1=C(C)C(=O)C2=C(C1=O)C1C3CC4=C(C(=O)C(OC)=C(C)C4=O)C(CNC(=O)C(C)=O)N3C(C#N)C(C2)N1C (stereo unspecified) | 0.00789 µM (active) | 0.00383 µM (active) | 0.0215 µM (active) | 0.00343 µM (active) | 0.00153 µM (active) | 0.0328 µM (active) | < 0.001 µM (active) | 0.00464 µM (active) | 0.00603 µM | 0.0209 µM (active) | 0.00246 µM (active) | 0.00353 µM (active) | 0.0014 µM (active) | 0.00162 µM (active) | 0.00419 µM (active) | 0.00519 µM (active) | 0.0741 µM (active) | 0.00661 µM (active) | 0.00226 µM (active) | 0.00283 µM (active)
11 | C/N=C(\N)c1ccc(NC(=N)c2ccc(C(=N)Nc3ccc(/C(N)=N/C)cc3)cc2)cc1 | > 100 µM (inactive) | > 100 µM (inactive) | > 100 µM (inactive) | > 100 µM (inactive) | > 100 µM (inactive) | > 100 µM (inactive) | > 100 µM (inactive) | > 100 µM (inactive) | > 100 µM | > 100 µM (inactive) | > 100 µM (inactive) | > 100 µM (inactive) | > 100 µM (inactive) | > 100 µM (inactive) | > 100 µM (inactive) | > 100 µM (inactive) | > 100 µM (inactive) | > 100 µM (inactive) | > 100 µM (inactive) | 
12 | CC(C)N(C(=O)C12C3C4C5C3C1(C(=O)N(C(C)C)C(C)C)C5(C#N)C42)C(C)C (stereo unspecified) | > 100 µM (inactive) | > 100 µM (inactive) | > 100 µM (inactive) | > 100 µM (inactive) | 33.7 µM (inactive) | > 100 µM (inactive) | > 100 µM (inactive) | > 100 µM (inactive) | 67.5 µM | > 100 µM (inactive) | 17.9 µM (inactive) | > 100 µM (inactive) | 26.7 µM (inactive) | > 100 µM (inactive) | > 100 µM (inactive) | > 100 µM (inactive) | > 100 µM (inactive) | > 100 µM (inactive) | > 100 µM (inactive) | 
13 | O=C1COc2cc3c(cc2N1)SCC(=O)N3 | > 100 µM (inactive) | > 100 µM (inactive) | > 100 µM (inactive) | > 100 µM (inactive) | > 100 µM (inactive) | > 100 µM (inactive) | > 100 µM (inactive) | > 100 µM (inactive) |  |  | > 100 µM (inactive) | > 100 µM (inactive) | > 100 µM (inactive) | > 100 µM (inactive) | > 100 µM (inactive) | > 100 µM (inactive) | > 100 µM (inactive) | > 100 µM (inactive) | > 100 µM (inactive) | 
14 | C=C1CCC2C(C)(CO)C(O)CCC2(C)C1CC(O)C1=CCOC1=O (stereo unspecified) | 36.1 µM (inactive) | 23.1 µM (inactive) | > 100 µM (inactive) | 77.1 µM (inactive) | 34.1 µM (inactive) | > 100 µM (inactive) | 5.36 µM (inactive) | > 100 µM (inactive) | 27.4 µM | 60.7 µM (inactive) | 19.8 µM (inactive) | > 100 µM (inactive) | > 100 µM (inactive) | 41.8 µM (inactive) | 26.5 µM (inactive) | 46.9 µM (inactive) | 51.5 µM (inactive) | 36.1 µM (inactive) | 53.5 µM (inactive) | 
